Source: PubChem BioAssay AID288 (DTP/NCI, 2004)
Inconclusive results are not listed.

System: BDF1 mice, M5076 sarcoma s.c., survival/tumor T/C
Assay: NCI In Vivo Anticancer Drug Screen. Data for tumor model Sarcoma M5076 (subcutaneous) in B6D2F1 (BDF1) mice
Procedure: The antitumor activity of compounds was measured in mice bearing transplantable tumors. Survival or tumor size were measured and the results are expressed as the measurement made in the treated group (T) divided by the measurement made in the vehicle treated control group (C). The tumor model used in this assay is Sarcoma M5076 (subcutaneous) in B6D2F1 (BDF1) mice

In the case of `OCCNCCN=C1CCC(=NCCNCCO)CC1`, the T/C (endpoint: median survival time, dose: 50.0 mg/kg/injection, schedule: Q01DX009 (ip), vehicle: saline with Tween-80, higher = longer survival) is reported as 100 % of control, the T/C (endpoint: median survival time, dose: 100.0 mg/kg/injection, schedule: Q01DX009 (ip), vehicle: saline with Tween-80, higher = longer survival) is reported as 100 % of control and the T/C (endpoint: median tumor weight (est.), dose: 50.0 mg/kg/injection, schedule: Q01DX009 (ip), vehicle: saline with Tween-80, higher = larger tumour) is reported as 105 % of control. The T/C (endpoint: median tumor weight (est.), dose: 100.0 mg/kg/injection, schedule: Q01DX009 (ip), vehicle: saline with Tween-80, higher = larger tumour) was 112 % of control.
With `COc1cccc2c1C(=O)c1c(O)c3c(c(O)c1C2=O)C[C@@](O)(C(C)=O)C[C@@H]3OC1CC(N)C(O)C(C)O1` (stereo partly drawn) the T/C (endpoint: median survival time, dose: 0.4 mg/kg/injection, schedule: Q02DX030 (ip), vehicle: saline, higher = longer survival) was 95 % of control, the T/C (endpoint: median survival time, dose: 0.4 mg/kg/injection, schedule: Q04DX006 (ip), vehicle: saline, higher = longer survival) was 106 % of control and the T/C (endpoint: median survival time, dose: 0.8 mg/kg/injection, schedule: Q02DX030 (ip), vehicle: saline, higher = longer survival) was 122 % of control. The T/C (endpoint: median survival time, dose: 1.6 mg/kg/injection, schedule: Q02DX030 (ip), vehicle: saline, higher = longer survival) was 104 % of control.
